Reference: patent publication US4436751A, “Nitrobenzyl monates antibacterial compounds” (Beecham Group Limited, priority 1980, dated 1984)
≈ marks a conversion by molar mass, not a printed value. Read-outs that look alike come from different tables or passages of the source.

What was measured:
Format in all cases: cell-based
M. bovis RCTC 10131 = assay: microbe, parasite or virus in culture; details: RCTC10131, 144 h
[1] = tested on: M. suipneumoniae NCTC 10110; assay: Anti-mycoplasmal MIC in vitro, Friis broth agarose (Table 1); details: Mesomycoplasma hyopneumoniae, NCTC10110, 144 h
[2] = tested on: M. bovigenitalium ATOC 14173; assay: as above; details: 144 h
E. coli ESS = assay: Human bacteria MIC, nutrient agar with chocolated horse blood (Table 3); details: Escherichia coli; E. coli ESS; nutrient agar 5% chocolated horse blood, 18 hours 37° C.; read-out: MIC
Procedure: (§1) The values were determined by serial dilutions in nutrient agar with 5% chocolated horse blood after incubations for 18 hours at 37° C.

[3] = tested on: Neisseria catarrhalis 1502; assay: as above; details: Neisseria catarrhalis 1502; nutrient agar 5% chocolated horse blood, 18 hours 37° C.; read-out: MIC
Procedure: as §1

Strep. 2733-B = assay: as above
Procedure: as §1

M. suipneumoniae TAM 6N = assay: Anti-mycoplasmal MIC in vitro, Friis broth agarose (Table 1); details: Mesomycoplasma hyopneumoniae, TAM6N, 144 h
[4] = tested on: M. suipneumoniae PW/C/210; assay: as above; details: Mesomycoplasma hyopneumoniae, 144 h
S. dublin S7 = assay: Veterinary bacteria MIC, Diagnostic Sensitivity Test Agar (Table 2); details: Salmonella enterica
Procedure: (§2) The values were determined using a two fold serial dilutions in Diagnostic Sensitivity Test Agar with an inoculum of 10^4 organisms and incubation for 18 hours at 37° C.

[5] = tested on: Erysipelothrix rhusiopathiae NCTC 8163; assay: as above; details: NCTC8163; Erysipelothrix rhusiopathiae NCTC 8163; DST Agar, 10^4 organisms, 18 hours 37° C.; read-out: MIC
Procedure: as §2

E. Coli E1 = assay: as above; details: Escherichia coli
Procedure: as §2

Past. multocida PA2 = assay: as above; details: Pasteurella multocida; Past. multocida PA2; DST Agar, 10^4 organisms, 18 hours 37° C.; read-out: MIC
Procedure: as §2

Past. haemolytica PA5 = assay: as above; details: Mannheimia haemolytica
Procedure: as §2

[6] = tested on: Strep. suis (group D) SPS11; assay: as above; details: Streptococcus suis
Procedure: as §2

Bord. bronchiseptica BO8 = assay: as above; details: Bordetella bronchiseptica
Procedure: as §2

E. Coli NCTC 10418 = assay: as above; details: Escherichia coli
Procedure: as §2

Strep. dylgalactiae SPD1 = assay: as above; details: Strep. dylgalactiae SPD1; DST Agar, 10^4 organisms, 18 hours 37° C.; read-out: MIC
Procedure: as §2

Staph. aureus B4 = assay: as above; details: Staphylococcus aureus; Staph. aureus B4; DST Agar, 10^4 organisms, 18 hours 37° C.; read-out: MIC
Procedure: as §2

Staph. aureus Oxford = assay: as above; details: Staphylococcus aureus; Staph. aureus Oxford; DST Agar, 10^4 organisms, 18 hours 37° C.; read-out: MIC
Procedure: as §2

Bord. bronchiseptica BO9 = assay: as above; details: Bordetella bronchiseptica
Procedure: as §2

Past. multocida PA1 = assay: as above; details: Pasteurella multocida; Past. multocida PA1; DST Agar, 10^4 organisms, 18 hours 37° C.; read-out: MIC
Procedure: as §2

Staph. aureus 152 = assay: as above; details: Staphylococcus aureus; Staph. aureus 152; DST Agar, 10^4 organisms, 18 hours 37° C.; read-out: MIC
Procedure: as §2

Strep. agalactiae SPA1 = assay: as above; details: Streptococcus agalactiae; Strep. agalactiae SPA1; DST Agar, 10^4 organisms, 18 hours 37° C.; read-out: MIC
Procedure: as §2

S. typhimurium S18 = assay: as above; details: Salmonella enterica
Procedure: as §2

[7] = tested on: Corynebacterium pyogenes CY1; assay: as above; details: Trueperella pyogenes
Procedure: as §2

Strep. uberis SPO1 = assay: as above; details: Streptococcus uberis; Strep. uberis SPO1; DST Agar, 10^4 organisms, 18 hours 37° C.; read-out: MIC
Procedure: as §2

Strep. 641848-C = assay: Human bacteria MIC, nutrient agar with chocolated horse blood (Table 3); details: 18 h
Procedure: as §1

Strep. pneumoniae CN33 = assay: as above; details: Streptococcus pneumoniae; Strep. pneumoniae CN33; nutrient agar 5% chocolated horse blood, 18 hours 37° C.; read-out: MIC
Procedure: as §1

[8] = Past. haemolytica PA5, DST Agar, 10^4 organisms, 18 hours 37° C., read-out: MIC
[9] = Strep. suis (group D) SPS11, DST Agar, 10^4 organisms, 18 hours 37° C., read-out: MIC
[10] = M. suipneumoniae TAM 6N, in vitro, 6 days 37° C., read-out: MIC
[11] = S. dublin S7, DST Agar, 10^4 organisms, 18 hours 37° C., read-out: MIC
[12] = E. Coli E1, DST Agar, 10^4 organisms, 18 hours 37° C., read-out: MIC
[13] = NCTC10418, E. Coli NCTC 10418, DST Agar, 10^4 organisms, 18 hours 37° C., read-out: MIC
[14] = Bord. bronchiseptica BO9, DST Agar, 10^4 organisms, 18 hours 37° C., read-out: MIC
[15] = S. typhimurium S18, DST Agar, 10^4 organisms, 18 hours 37° C., read-out: MIC

| Structure (SMILES) | MIC (M. bovis RCTC 10131) | MIC [1] | MIC [2] | MIC (E. coli ESS) | MIC [3] | MIC [4] | MIC [5] | MIC (Past. multocida PA2) | MIC (Past. haemolytica PA5; [8]) | MIC [6, 9] | MIC (Bord. bronchiseptica BO8; BO8, 18 h) | MIC (Strep. dylgalactiae SPD1) | MIC (Staph. aureus B4) | MIC (Staph. aureus Oxford) | MIC (Past. multocida PA1) | MIC (Staph. aureus 152) | MIC (Strep. agalactiae SPA1) | MIC ([7]; CY1, 18 h) | MIC (Strep. uberis SPO1) | MIC (M. suipneumoniae TAM 6N; [10]) | other results |
| --- | --- | --- | --- | --- | --- | --- | --- | --- | --- | --- | --- | --- | --- | --- | --- | --- | --- | --- | --- | --- | --- |
| C/C(=C\C(=O)OCc1ccccc1[N+](=O)[O-])CC1OCC(CC2OC2C(C)C(C)O)C(O)C1O (stereo not drawn) [C, O--nitrobenzyl monate A, reference compound] | ≤ 0.01 µg/mL | 0.5 µg/mL (≈ 1.04 µM) | 0.025 µg/mL (≈ 0.0521 µM) | 2.5 µg/mL (≈ 5.21 µM) | 1 µg/mL (≈ 2.09 µM) | 0.25 µg/mL (≈ 0.521 µM) | 80 µg/mL (≈ 167 µM) | 1.25 µg/mL (≈ 2.61 µM) | 10 µg/mL (≈ 20.9 µM) | 20 µg/mL (≈ 41.7 µM) | 80 µg/mL (≈ 167 µM) | 0.625 µg/mL (≈ 1.3 µM) | 0.625 µg/mL (≈ 1.3 µM) | 0.625 µg/mL (≈ 1.3 µM) | 2.5 µg/mL (≈ 5.21 µM) | 0.625 µg/mL (≈ 1.3 µM) | 2.5 µg/mL (≈ 5.21 µM) | > 80 µg/mL | 0.07 µg/mL (≈ 0.146 µM) | – | MIC (Strep. 2733-B; 18 h): 2.5 µg/mL (≈ 5.21 µM); MIC (M. suipneumoniae TAM 6N): 0.5 µg/mL (≈ 1.04 µM); MIC (S. dublin S7; S7, 18 h): > 80 µg/mL; MIC (E. Coli E1; 18 h): > 80 µg/mL; MIC (E. Coli NCTC 10418; NCTC10418, 18 h): > 80 µg/mL; MIC (Bord. bronchiseptica BO9; BO9, 18 h): 10 µg/mL (≈ 20.9 µM); MIC (S. typhimurium S18; TYPHIMURIUM, 18 h): > 80 µg/mL |
| C/C(=C\C(=O)OCc1ccc([N+](=O)[O-])cc1)CC1OCC(CC2OC2C(C)C(C)O)C(O)C1O (stereo not drawn) [Example 1, p-nitrobenzyl monate A] | < 0.01 µg/mL | 0.05 µg/mL (≈ 0.104 µM) | < 0.01 µg/mL | 0.5 µg/mL (≈ 1.04 µM) | – | 0.05 µg/mL (≈ 0.104 µM) | 10 µg/mL (≈ 20.9 µM) | > 0.019 µg/mL | – | – | 5 µg/mL (≈ 10.4 µM) | 0.07 µg/mL (≈ 0.146 µM) | 0.156 µg/mL (≈ 0.325 µM) | 0.156 µg/mL (≈ 0.325 µM) | 0.156 µg/mL (≈ 0.325 µM) | 0.156 µg/mL (≈ 0.325 µM) | 0.317 µg/mL (≈ 0.661 µM) | > 80 µg/mL | 0.039 µg/mL (≈ 0.0813 µM) | 0.1 µg/mL (≈ 0.209 µM) | MIC (Strep. 641848-C): 0.25 µg/mL (≈ 0.521 µM); MIC (Strep. pneumoniae CN33): 0.1 µg/mL (≈ 0.209 µM); MIC (S. dublin S7; [11]): 40 µg/mL (≈ 83.4 µM); MIC (E. Coli E1; [12]): 40 µg/mL (≈ 83.4 µM); MIC (Past. haemolytica PA5; PA5, 18 h): 1.25 µg/mL (≈ 2.61 µM); MIC ([6]; 18 h): 1.25 µg/mL (≈ 2.61 µM); MIC (E. Coli NCTC 10418; [13]): 40 µg/mL (≈ 83.4 µM); MIC (Bord. bronchiseptica BO9; [14]): 1.25 µg/mL (≈ 2.61 µM); MIC (S. typhimurium S18; [15]): 40 µg/mL (≈ 83.4 µM) |
| C/C(=C\C(=O)OCc1cccc([N+](=O)[O-])c1)CC1OCC(CC2OC2C(C)C(C)O)C(O)C1O (stereo not drawn) [Example 2, m-nitrobenzyl monate A] | ≤ 0.01 µg/mL | 0.025 µg/mL (≈ 0.0521 µM) | – | 5 µg/mL (≈ 10.4 µM) | 2.5 µg/mL (≈ 5.21 µM) | – | 20 µg/mL (≈ 41.7 µM) | 0.312 µg/mL (≈ 0.651 µM) | 5 µg/mL (≈ 10.4 µM) | 5 µg/mL (≈ 10.4 µM) | – | 0.312 µg/mL (≈ 0.651 µM) | 0.625 µg/mL (≈ 1.3 µM) | 0.625 µg/mL (≈ 1.3 µM) | 0.615 µg/mL (≈ 1.28 µM) | 0.625 µg/mL (≈ 1.3 µM) | 0.625 µg/mL (≈ 1.3 µM) | – | 0.07 µg/mL (≈ 0.146 µM) | 0.025 µg/mL (≈ 0.0521 µM) | MIC ([2]; M. bovigenitalium ATOC 14173, in vitro, 6 days 37° C., read-out: MIC): ≤ 0.01 µg/mL; MIC (Strep. 2733-B; Strep. 2733-B, nutrient agar 5% chocolated horse blood, 18 hours 37° C., read-out: MIC): 10 µg/mL (≈ 20.9 µM); MIC ([4]; M. suipneumoniae PW/C/210, in vitro, 6 days 37° C., read-out: MIC): ≤ 0.01 µg/mL; MIC (S. dublin S7; [11]): 80 µg/mL (≈ 167 µM); MIC (E. Coli E1; [12]): 40 µg/mL (≈ 83.4 µM); MIC (Bord. bronchiseptica BO8; Bord. bronchiseptica BO8, DST Agar, 10^4 organisms, 18 hours 37° C., read-out: MIC): 20 µg/mL (≈ 41.7 µM); MIC (E. Coli NCTC 10418; [13]): 40 µg/mL (≈ 83.4 µM); MIC (Bord. bronchiseptica BO9; [14]): 5 µg/mL (≈ 10.4 µM); MIC (S. typhimurium S18; [15]): 40 µg/mL (≈ 83.4 µM); MIC ([7]; Corynebacterium pyogenes CY1, DST Agar, 10^4 organisms, 18 hours 37° C., read-out: MIC): > 80 µg/mL |
